Experiments:
[1] = tested on: Pseudomonas aeruginosa strain H1001 fliC::luxCDABE; assay: Luminescence-based assay for the non-cleaved (bound) peptides on cellulose membranes; assay type: cell-based; settings: for Luminescence at the given time in minutes: 0 / Luminescence at the given time in minutes: 20 / Luminescence at the given time in minutes: 40 / Luminescence at the given time in minutes: 60 / Luminescence at the given time in minutes: 80 / Luminescence at the given time in minutes: 100 / Luminescence at the given time in minutes: 120 / Luminescence at the given time in minutes: 180 / Luminescence at the given time in minutes: 240: cellulose-bound peptide; for Luminescence at the given time in minutes: 0: 0 min; for Luminescence at the given time in minutes: 20: 20 min; for Luminescence at the given time in minutes: 40: 40 min; for Luminescence at the given time in minutes: 60: 60 min; for Luminescence at the given time in minutes: 80: 80 min; for Luminescence at the given time in minutes: 100: 100 min; for Luminescence at the given time in minutes: 120: 120 min; for Luminescence at the given time in minutes: 180: 180 min; for Luminescence at the given time in minutes: 240: 240 min; for Activity Class bound: uncleaved cellulose-bound peptides
How it was run: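 Peptides remained bound to cellulose spots, which were ethanol-washed and equilibrated in 100 mM Tris pH 7.3. Constitutively lux-expressing P. aeruginosa (OD600 0.35 culture diluted 1:25) added in 10 mM Tris-HCl pH 7.3, 20 mM glucose at 37° C. Luminescence (RLU) followed over 14 time points; peptides binned into six activity classes.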

[2] = tested on: Pseudomonas aeruginosa strain H1001; assay: Assay for the cleaved (free, soluble) peptides from cellulose support, luminescence killing assay; assay type: cell-based; design: key: 1: Peptides showing stronger killing than Bac2A at a 4 to 8-fold higher dilution; Peptides showing stronger killing compared to that of Bac2A at a 4-fold higher dilution; 3: Peptides similar to Bac2A; 4: Peptides similar to Bac2A at the highest concentration but demonstrating weaker killing at a 2-fold dilution; 5: Peptides giving very weak or no killing at a 2-fold dilution; 6: Peptides with weak killing activity at the highest concentration; settings: free (cleaved) peptides, killing relative to Bac2A
How it was run: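 Cellulose-synthesized peptides (amidated C-terminus, two β-alanines) cleaved by ammonia, released from punched spots 30 min at 37 °C, then serially diluted. P. aeruginosa H1001 (constitutive fliC::luxCDABE) overnight culture diluted 1:500 in LB or 100 mM Tris pH 7.3/20 mM glucose. Killing followed as time-dependent luminescence loss at 37 °C.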

Sequence | Luminescence at the given time in minutes: 0 [1] [RLU] | Luminescence at the given time in minutes: 20 [1] [RLU] | Luminescence at the given time in minutes: 40 [1] [RLU] | Luminescence at the given time in minutes: 60 [1] [RLU] | Luminescence at the given time in minutes: 80 [1] [RLU] | Luminescence at the given time in minutes: 100 [1] [RLU] | Luminescence at the given time in minutes: 120 [1] [RLU] | Luminescence at the given time in minutes: 180 [1] [RLU] | Luminescence at the given time in minutes: 240 [1] [RLU] | Activity Class bound [1] | Activity Class Soluble [2]
RIVLRRAAVIRV [Bac039] | 4727 | 7074 | 5814 | 5262 | 4994 | 4717 | 4569 | 4524 | 5392 | 6 (Peptides having residual luminescence (lux) values greater than 3000 after 240 min.) | 5
RLRVAIVAIVRR [Bac041] | 4620 | 5674 | 615 | 54 | 68 | 37 | 77 | 53 | 37 | 2 (Peptides reducing lux values to between 500 and 1000 after 40 min.) | 4
RRIARVIVAVLR [Bac002] | 4340 | 6090 | 1631 | 135 | 58 | 48 | 35 | 59 | 48 | 3 (Peptides similar to Bac2A resulting in lux values of less than 500 after 240 min.) | 3
RRLVAIVAVRRI [Bac007] | 3943 | 7157 | 4403 | 2010 | 679 | 205 | 90 | 89 | 79 | 3 (Peptides similar to Bac2A resulting in lux values of less than 500 after 240 min.) | 4
RRRVIVAVLARI [Bac046] | 4408 | 5904 | 2345 | 233 | 76 | 70 | 102 | 48 | 53 | 3 (Peptides similar to Bac2A resulting in lux values of less than 500 after 240 min.) | 3
RRVAIVVIARLR [Bac018] | 4966 | 6080 | 981 | 82 | 44 | 60 | 62 | 50 | 39 | 2 (Peptides reducing lux values to between 500 and 1000 after 40 min.) | 2
RRVIAIAVRRLV [Bac050] | 4803 | 6715 | 5157 | 4430 | 3915 | 3428 | 3246 | 3206 | 3590 | 6 (Peptides having residual luminescence (lux) values greater than 3000 after 240 min.) | 3
RVLIAARVIRRV [Bac047] | 4733 | 6747 | 5100 | 4770 | 4031 | 3383 | 3012 | 2829 | 2615 | 5 (Peptides reducing luminescence (lux) values to between 1500 to 3000 after 240 min.) | 3
RVLRVVRAAIRI [Bac035] | 5199 | 6461 | 4989 | 4389 | 4001 | 3439 | 3162 | 2456 | 2577 | 5 (Peptides reducing luminescence (lux) values to between 1500 to 3000 after 240 min.) | 5
VARIVVRLIRAR [Bac013] | 3890 | 6850 | 3930 | 1584 | 494 | 193 | 111 | 100 | 66 | 3 (Peptides similar to Bac2A resulting in lux values of less than 500 after 240 min.) | 3
VIALRIAVRRVR [Bac045] | 4873 | 6105 | 2726 | 554 | 83 | 61 | 37 | 57 | 35 | 3 (Peptides similar to Bac2A resulting in lux values of less than 500 after 240 min.) | 3
VIALVRARVRRI [Bac049] | 4926 | 7239 | 5219 | 4106 | 3188 | 2524 | 2059 | 1687 | 1794 | 5 (Peptides reducing luminescence (lux) values to between 1500 to 3000 after 240 min.) | 3
VILARRRVRIAV [Bac017] | 4219 | 7259 | 5041 | 3136 | 1907 | 1047 | 578 | 321 | 214 | 3 (Peptides similar to Bac2A resulting in lux values of less than 500 after 240 min.) | 5
VIVRLAARRVRI [Bac028] | 5001 | 6828 | 5315 | 5037 | 4555 | 4143 | 3762 | 3646 | 4268 | 6 (Peptides having residual luminescence (lux) values greater than 3000 after 240 min.) | 5
VLARVVARRIRI [Bac040] | 4220 | 6241 | 4269 | 3951 | 3368 | 2880 | 2761 | 2300 | 2415 | 5 (Peptides reducing luminescence (lux) values to between 1500 to 3000 after 240 min.) | 5

Source: patent US20080207522A1, “Antimicrobial Peptides” (priority 2004, published 2008)
